Laboratory results: US12023348B2, “EGR1 targeting molecules for the treatment of inflammatory and hyperproliferative conditions” (The Medical Research, Infrastructure and Health Services …, priority 2015, dated 2024)

Tests used:
SAMD9 [1] = assay: SAMD9 RNA expression by qRT-PCR in HeLa cells; type: cell-based, human; conditions: for SAMD9 expression in HeLa cells: 5 μM, 24 hours, qRT-PCR vs DMSO (FIG. 1C); for SAMD9 expression fold change in HeLa cells: fold increase in RNA gene expression vs cells treated with vehicle only
Protocol: HeLa cells were cultured in DMEM 4.5 g/l glucose medium containing 10% FCS, 1% L-glutamine and 1% penicillin and streptomycin (Biological Industries) and grown at 37° C. and 5% CO2.
(§1) Of note, when cells were incubated with CaCx and ApDx (NCI, MA USA), they were grown in the appropriate medium with 0.1% FCS only.
(§2) RNA was extracted from cell cultures using an RNA extraction kit (Roche Diagnostics, Mahheim, Germany). cDNA was synthesized from 500 ng of total RNA using the Verso cDNA kit (Thermo Fisher Scientific, Waltham, MA, USA). cDNA PCR amplification was carried out using the Fast SYBR Green Master Mix in a StepOnePlus™ Real-Time PCR System (Applied Biosystems, Foster City, CA, USA) with gene-specific intron-crossing oligonucleotide pairs listed in Table 1 (below). For quantification, standard curves were obtained using serially diluted cDNA amplified in the same qRT-PCR run. The melting temperature (Tm) of the amplified products was measured to confirm the specificity of the reaction conditions. Cycling conditions were as follows: 95° C. for 10 minutes, 95° C. for 10 seconds, 62° C. for 15 seconds, and 72° C. for 25 seconds for a total of 40 cycles. Each sample was analyzed in triplicate. mRNA expression level for target gene was normalized to GAPDH. The results are based the amount of target, normalized to an endogenous reference (IACTB) and relative to a calibrator, as calculated by 2-ΔΔCT. All samples were run in triplicate. The expression levels of target genes were expressed as mRNA relative units.
(§3) The potential ability of these 31 molecules to induce SAMD9 expression in cell cultures was then scrutinized.

SAMD9 promoter = assay: High-throughput luciferase reporter screen in HeLa line stably expressing 585 bp SAMD9 promoter fragment; type: cell-based, human; conditions: Homo sapiens, HeLa; fold increase in promoter activity by luciferase assay vs cells treated with vehicle only; test drugs 10 μM, 24 hours; read-out: SAMD9 expression fold change in HeLa reporter assay
Protocol: HeLa cell lines stably expressing the constructs were generated under neomycin selection. Briefly, pGL4.17 containing a SAMD9 promoter fragment spanning 585 bp upstream to the TSS and an empty pGL4.17 vector were transfected into HeLa cells. Forty eight hours after transfection, standard medium was replaced with medium containing 600 μg/ml G418 (Sigma-Aldrich), cells were kept under G418 selection and the selective medium was replaced approximately every 2-3 days. After two passages, colonies of stable cells were isolated, expanded and frozen for further use.
Test drugs were dispensed at a concentration of 10 μM by a robotic system into 96-well plates containing 9000 cells/well expressing the pGL4.17 reporter construct carrying a 585 bp SAMD9 promoter fragment operably linked to luciferase gene or the empty pGL4.17 luciferase construct (Promega cat. no. E6721). Medium was removed after 24 hours and the cells subjected to Steady-Glo luciferase lysis-substrate solution assay (Promega) as described above. Liquid handling was done with the Tecan (Tecan) Freedom 150 (Robotic & MCA liquid Handling System) and the luciferase reading was done with a robot integrated Tecan Infinite® M1000 reader.
This cell line was then used to robotically screen a total of 1496 compounds obtained from the National Cancer Institute Diversity Set III and Oncology Drugs Set III small molecule libraries.

SAMD9 [2] = assay: SAMD9 RNA expression by qRT-PCR in primary fibroblasts; type: cell-based, human; conditions: for SAMD9 expression in primary fibroblasts: 5 μM, 24 hours, qRT-PCR vs DMSO (FIG. 1C); for Dose and time dependence of SAMD9 up-regulation: primary fibroblasts, 5 μM over 72 hours, 1, 2, 5, 10 μM (FIGS. 2A-B)
Protocol: Primary fibroblasts were isolated from human adult skin and were grown in High Glucose DMEM, 10% Fetal Bovine Serum, L-glutamine and Pen-Strep. Medium was changed every 2-3 days. Cells were used at passage 2-3.
as §1, §2, §3

[3] = test system: imiquimod-induced psoriasiform dermatitis; assay: Imiquimod-induced psoriasiform dermatitis in mice; type: in vivo; conditions: for Overt toxicity / Inflammatory infiltrate / Epidermal thickness / Index of proliferation (Ki67): i.p. five times a week, CaCx 22.5 mg/kg or ApDx 7.5 mg/kg; for Overt toxicity: 5 days; for Inflammatory infiltrate: biopsies after 5 days; for Epidermal thickness / Index of proliferation (Ki67): biopsies after 5 days (FIG. 5A); for EGR1 RNA levels in treated skin: quantitative PCR vs vehicle group (FIG. 5B); for EGR1 RNA levels in treated skin / IL-33 RNA levels in treated skin: CaCx 22.5 mg/kg or ApDx 7.5 mg/kg i.p.; for IL-33 RNA levels in treated skin: quantitative PCR vs vehicle group (FIG. 5C)
Protocol: Balb/c mice (Harlan Laboratories Ltd, Jerusalem, Israel), 9 weeks of age, were maintained in a pathogen-free animal facility. Animal care and research protocols had been approved by the institutional committee for animal use. Imiquimod 5% (Perrigo, Israel) was used as topical treatment for the mice on their upper backs. Mice were injected i.p. five times a week with DMSO or 7.5-22.5 mg/kg of ApDx and CaCx, respectively (NCI). 10% DMSO in […] was used as a vehicle control.
Formaldehyde-fixed 5-μm paraffin-embedded sections from skin biopsies were deparaffinized and treated with 3% H2O2 in methanol for 15 minutes at room temperature, warmed in a microwave oven in citrate buffer in a pressure cooker for 25 minutes, and stained with a monoclonal anti-Ki67 antibody (Thermo Scientific) for 1 hour at room temperature. Following 3 washings (10 minutes each) with phosphate-buffered saline (PBS), the antibodies were imaged using the ABC technique (Zymed Laboratories, South San Francisco, CA) and the slides were counterstained with hematoxylin.
Epidermal thickness was defined as the distance between the granular layer and the basement membrane and was measured at 10 randomly selected locations for each biopsy using NIS-Elements BR 3.2 software (Nikon, NY USA). An image was taken and was manually measured in the software by selecting an upper and lower border, as defined above. The distance was measured in microns.
as §2
This hypothesis was tested in a murine model in which psoriasiform dermatitis was induced using imiquimod [as previously described in Tortola, L. et al. (2012) J Clin Invest 122, 3965-76].
Balb/c mice were treated topically with imiquimod and were injected five times a week i.p. with either the vehicle, 22.5 mg/kg of CaCx or 7.5 mg/kg of ApDx.
After 5 days, biopsies were obtained from the treated skin and stained for hematoxylin and eosin as well as for Ki67 (FIGS. 4A-F), as a surrogate marker for cellular proliferation.

Row | SMILES | SAMD9 expression in HeLa cells (SAMD9 [1]) | SAMD9 expression fold change in HeLa cells (SAMD9 [1]) [fold] | fold induction at 10 µM (SAMD9 promoter) | SAMD9 expression in primary fibroblasts (SAMD9 [2]) | Dose and time dependence of SAMD9 up-regulation (SAMD9 [2]) | Overt toxicity [3] | Inflammatory infiltrate [3] | Epidermal thickness [3] | Index of proliferation (Ki67) [3] | EGR1 RNA levels in treated skin [3] | IL-33 RNA levels in treated skin [3]
1 | Cc1c2ccnc(C(N)=O)c2c(C)c2c1[nH]c1ccccc12.Cl [Compound 335142, 6H-Pyrido[4,3-b]carbazole-1-carboxamide, 5,11-dimethyl-, monohydrochloride] | significantly induce | 6.44 | 2.95 | significantly induce | both dose and time dependent | No overt toxicity | did not affect | decrease | decrease | significant decrease | significant decrease
2 | CCCN1c2ccc(N)cc2S(=O)(=O)c2cc(Cl)cc(Cl)c21 [Compound 629971, 7,9-dichloro-5,5-dioxo-10-propylphenothiazin-3-amine] | significantly induce | 20.5 | 4.85 | significantly induce | both dose and time dependent | No overt toxicity | did not affect | decrease | decrease | significant decrease | significant decrease
